{"source": "patent US10206900B2", "about": "“Treatments for fibrotic diseases” (MOR RESEARCH APPLICATIONS LTD., priority 2013, dated 2019)", "assay_type_in_all_cases": "cell-based", "key": {"[1]": {"test_system": "Smad2/3", "assay": "Smad2/3 phosphorylation by immuno-blot in RPE cells", "experimental": "FIG. 4A-4C: Inhibition of TAK1 abolishes the activation of TGF-β cascades. FIG. 4A: Serum-starved RPE cells were pretreated with or without with 5Z-7-oxozeaenol (1 μM) for 1 hour and then with TGF-β (2.5 ng/ml) for the indicated times. Total protein extracts were analyzed by western blot using the indicated antibodies. […] FIG. 4B: Levels of phospho-Smad2/3 were quantified and normalized to total Smad2/3 FIG. 4C: Statistical analysis of p-p38 and p-Smad3 activation normalized to p38 and Smad3 respectively, with or without TGF-β stimulation. The histograms present results of 5 independent experiments. Statistics were computed using student t-test (Two tailed distribution equal variance). Data is expressed as the Mean±SD. RPE cells were treated with or without 5Z-7-oxozeaenol followed by TGF-β1 treatment and Smad2/3 phosphorylation patterns were examined by immuno-blots. […] Upon TGF-β1 stimulation, the phosphorylation of p38 increased, reaching a peak at 60 min (FIGS. 4A and C)."}, "[2]": {"test_system": "p38", "assay": "p38 phosphorylation by immuno-blot in W2b liver hepatocytes", "conditions": "1 μM for 1 hour, TGF-β 2.5 ng/ml", "experimental": "FIG. 10: Inhibition of TAK1 abolishes the activation of TGF-β cascades in liver cells. TGF-β1 up-regulates-Smad 2/3 and p38 activation and E-cadherin expression via TAK1 activity in hepatic cells. W2B liver hepatocytes cells were treated with or without 5Z-7-oxozeaenol followed by TGF-β treatment and Smad2/3 and p38 phosphorylation patterns were examined by immuno-blots. W2b liver hepatocytes cells were treated with or without 5Z-7-oxozeaenol (1 μM) for 1 hour followed by TGF-β treatment (2.5 ng/ml) for the indicated times. Smad2/3 and p38 phosphorylation patterns were examined by immuno-blots as described above."}, "[3]": {"test_system": "E-cadherin", "assay": "E-cadherin immunostaining in RPE cells", "conditions": "1 μM prior to TGF-β1 stimulation", "experimental": "FIG. 3A: RPE cells were plated on fibronectin-coated glass coverslips, serum-starved for 16 hours, pretreated with 5Z-7-oxozeaenol (1 μM) or SB431542 (10 μM), or DMSO for 1 hour, then treated with or without TGF-β1 for 2 days. Following treatment, the cells were stained with rhodamine-phalloidin (actin fibers-red) and DAPI (blue) and visualized by confocal microscopy. Scale bars: […]. FIG. 3B: Serum-starved RPE cells pretreated with 5Z-7-oxozeaenol (1 μM) or DMSO for 1 hour, and were exposed to TGF-β as in FIG. 3A. Total RNA was extracted at each time point and qPCR was performed. Transcription levels of CTGF were determined after 6 h, 16 h and 24 h. Bars represent the specific mRNA amount relative to GAPDH mRNA in the same samples. All experiments were performed in triplicates. A representative histogram from two independent experiments is shown. FIG. 3C: RPE cells were plated and treated as in FIG. 3A. Following treatment, the cells were immunostained with E-cadherin antibodies (green) and DAPI (blue). Representative photographs of two independent experiments are shown. A recent publication has shown that down-regulation of the cell-cell adhesion protein E-cadherin, was considered a hallmark of EMT in RPE cells ([…] et al., Invest Ophthalmol Vis Sci 2010, 51:2755-2763). […]"}, "[4]": {"test_system": "p38", "assay": "p38 phosphorylation by immuno-blot in HT29 colon cells", "conditions": "HT29 Human colon cells, TGF-β treatment, versus untreated cells", "experimental": "FIG. 11. Inhibition of TAK1 abolishes the activation of TGF-β cascades in colon cells. TGF-β1 up-regulates-Smad 2/3 and p38 activation via TAK1 activity in colon cells. HT29 Human colon cells were treated with or without 5Z-7-oxozeaenol followed by TGF-β treatment. Smad2/3 and p38 phosphorylation patterns were examined by immuno-blots. HT29 Human colon cells were treated as in the previous examples with or without 5Z-7-oxozeaenol, followed by TGF-β treatment. Inhibition of TAK1 was assayed by observation of Smad2/3 and p38 phosphorylation patterns by immuno-blots."}, "[5]": {"test_system": "CTGF", "assay": "CTGF transcription by qPCR in RPE cells", "conditions": "1 μM, TGF-β1, 6 h, 16 h and 24 h", "experimental": "FIG. 3A: RPE cells were plated on fibronectin-coated glass coverslips, serum-starved for 16 hours, pretreated with 5Z-7-oxozeaenol (1 μM) or SB431542 (10 μM), or DMSO for 1 hour, then treated with or without TGF-β1 for 2 days. Following treatment, the cells were stained with rhodamine-phalloidin (actin fibers-red) and DAPI (blue) and visualized by confocal microscopy. Scale bars: […]. FIG. 3B: Serum-starved RPE cells pretreated with 5Z-7-oxozeaenol (1 μM) or DMSO for 1 hour, and were exposed to TGF-β as in FIG. 3A. Total RNA was extracted at each time point and qPCR was performed. Transcription levels of CTGF were determined after 6 h, 16 h and 24 h. Bars represent the specific mRNA amount relative to GAPDH mRNA in the same samples. All experiments were performed in triplicates. A representative histogram from two independent experiments is shown. FIG. 3C: RPE cells were plated and treated as in FIG. 3A. Following treatment, the cells were immunostained with E-cadherin antibodies (green) and DAPI (blue). Representative photographs of two independent experiments are shown. CTGF, an important stimulant of fibrosis, functions as a downstream mediator of TGF-β, stimulating cell proliferation and cell matrix deposition (He et al., Invest Ophthalmol Vis Sci 2008, 49:4078-4088). We examined the association between TGF-β1 and CTFG expression in RPE cells by Real Time PCR (FIG. 3B)."}}, "data": [{"compound": "COc1cc(O)c2c(c1)/C=C/C[C@H](O)[C@H](O)C(=O)/C=C\\C[C@H](C)OC2=O", "note": "[5Z-7-oxozeaenol]", "values": [{"measurement": "Smad2/3 activation (phospho-Smad2/3)", "setting": "[1]; 1 μM for 1 hour then TGF-β 2.5 ng/ml", "value": "barely detectable"}, {"measurement": "ratio of phospho-Smad2/3 to total Smad2/3", "setting": "[1]; 1 μM, TGF-β1-stimulated, each time point", "value": "abolished Smad2/3 activation"}, {"measurement": "p38 activation", "setting": "[2]", "value": "barely detectable"}, {"measurement": "E-cadherin expression upon TGF-β1", "setting": "[3]", "value": "allowing normal E-cadherin expression"}, {"measurement": "p38 phosphorylation", "setting": "[4]", "value": "significantly inhibited"}, {"measurement": "levels of CTGF (mRNA relative to GAPDH)", "setting": "[5]", "value": "gradually reduced the levels of CTGF"}]}]}
